{"source": "patent US20250340567A1", "about": "“Next Generation Synthetic Transcription Factors” (WISCONSIN ALUMNI RESEARCH FOUNDATION, priority 2018, published 2025)", "key": {"[1]": {"target": "BRD4(1) first bromodomain (Homo sapiens, UniProt O60885)", "conditions": "cited from earlier work"}, "[2]": {"target": "BRD4(2) second bromodomain (Homo sapiens, UniProt O60885)", "conditions": "cited from earlier work"}, "BRD2": {"target": "BRD2 (Homo sapiens, UniProt P25440)", "sequence (P25440 whole entry, species assumed)": "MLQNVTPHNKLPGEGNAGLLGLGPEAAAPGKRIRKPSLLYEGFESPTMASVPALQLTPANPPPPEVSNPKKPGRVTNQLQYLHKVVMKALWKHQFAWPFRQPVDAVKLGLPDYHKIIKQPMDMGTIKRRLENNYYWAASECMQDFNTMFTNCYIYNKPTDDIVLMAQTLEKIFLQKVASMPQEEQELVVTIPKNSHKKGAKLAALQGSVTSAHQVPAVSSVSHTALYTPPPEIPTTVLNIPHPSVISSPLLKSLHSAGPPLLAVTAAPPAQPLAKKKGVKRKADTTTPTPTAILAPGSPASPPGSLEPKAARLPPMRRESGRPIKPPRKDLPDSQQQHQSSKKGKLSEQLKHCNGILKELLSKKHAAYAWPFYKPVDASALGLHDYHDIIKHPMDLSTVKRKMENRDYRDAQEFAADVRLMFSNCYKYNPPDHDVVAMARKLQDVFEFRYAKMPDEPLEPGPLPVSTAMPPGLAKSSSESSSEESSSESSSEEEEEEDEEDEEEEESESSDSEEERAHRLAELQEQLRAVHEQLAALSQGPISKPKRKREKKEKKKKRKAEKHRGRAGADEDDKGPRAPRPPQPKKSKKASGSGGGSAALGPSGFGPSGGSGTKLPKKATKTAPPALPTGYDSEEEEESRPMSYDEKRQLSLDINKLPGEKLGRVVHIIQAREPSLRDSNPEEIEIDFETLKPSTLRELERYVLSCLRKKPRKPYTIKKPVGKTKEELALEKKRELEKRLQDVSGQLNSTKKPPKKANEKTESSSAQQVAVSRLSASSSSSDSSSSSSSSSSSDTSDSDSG", "conditions": "cited from earlier work"}, "BRD3": {"target": "BRD3 (Homo sapiens, UniProt Q15059)", "sequence (Q15059 whole entry, species assumed)": "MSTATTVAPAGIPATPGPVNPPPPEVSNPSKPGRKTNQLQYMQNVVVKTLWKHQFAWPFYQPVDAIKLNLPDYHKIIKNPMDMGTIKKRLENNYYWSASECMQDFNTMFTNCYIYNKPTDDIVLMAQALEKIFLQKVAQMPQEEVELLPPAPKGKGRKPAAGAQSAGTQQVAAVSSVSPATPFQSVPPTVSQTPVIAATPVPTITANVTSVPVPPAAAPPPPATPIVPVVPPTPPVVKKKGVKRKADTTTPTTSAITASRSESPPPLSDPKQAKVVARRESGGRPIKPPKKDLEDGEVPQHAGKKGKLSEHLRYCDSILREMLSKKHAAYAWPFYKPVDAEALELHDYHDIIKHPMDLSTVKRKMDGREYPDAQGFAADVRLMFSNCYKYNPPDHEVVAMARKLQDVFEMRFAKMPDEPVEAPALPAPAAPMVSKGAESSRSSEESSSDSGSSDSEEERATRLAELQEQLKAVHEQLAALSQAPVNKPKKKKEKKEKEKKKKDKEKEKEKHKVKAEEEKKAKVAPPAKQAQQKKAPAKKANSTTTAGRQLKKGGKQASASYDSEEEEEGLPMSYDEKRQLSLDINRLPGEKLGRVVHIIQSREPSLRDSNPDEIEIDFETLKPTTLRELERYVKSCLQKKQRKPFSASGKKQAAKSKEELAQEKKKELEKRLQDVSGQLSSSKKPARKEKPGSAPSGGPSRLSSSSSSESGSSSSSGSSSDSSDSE", "conditions": "cited from earlier work"}, "BET bromodomain": {"tested_on": "BET bromodomain", "conditions": "read-out: IC50 BET bromodomain; cited from earlier work"}, "BET BD1": {"tested_on": "BET BD1", "conditions": "cited from earlier work"}, "BET BD2": {"tested_on": "BET BD2", "conditions": "cited from earlier work"}, "[3]": {"test": "Stability of synthetic transcription factors on storage, followed by mass spectra", "assay_type": "physicochemical", "conditions": "at 18° C., mass spectra (FIG. 2)", "description": "In as little as 5 days at 18° C., SynTEF1 begins to break down (FIG. 2).\nOther synthetic transcription factors having an ether bond as described herein between the bromodomain binding moiety and the linker also have shown improved stability."}}, "note": "pIC50: −log10 of the molar value."}
{"smiles": "Cc1sc2c(c1C)C(c1ccc(Cl)cc1)=N[C@@H](CC(=O)NC(C)(C)C)c1nnc(C)n1-2", "note": "[(+)-JQ1]", "values": [{"measurement": "pIC50", "setting": "[1]", "result": 7.11}, {"measurement": "pIC50", "setting": "[2]", "result": 7.48}]}
{"smiles": "CC(=O)N1c2ccc(-c3ccc(C(=O)O)cc3)cc2[C@H](Nc2ccc(Cl)cc2)C[C@@H]1C", "note": "[I-BET726]", "values": [{"measurement": "pIC50", "setting": "BRD2", "result": 7.39}, {"measurement": "pIC50", "setting": "BRD3", "result": 7.51}]}
{"smiles": "CCNC(=O)C[C@@H]1N=C(c2ccc(Cl)cc2)c2cc(OC)ccc2-n2c(C)nnc21", "note": "[I-BET762]", "values": [{"measurement": "pIC50", "setting": "BET bromodomain", "result": "7.37 to 7.49"}]}
{"smiles": "COc1cc(OC)c2c(=O)[nH]c(-c3cc(C)c(OCCO)c(C)c3)nc2c1", "note": "[RVX208]", "values": [{"measurement": "pIC50", "setting": "BET BD1", "result": 4.06}, {"measurement": "pIC50", "setting": "BET BD2", "result": 6.29}]}
{"smiles": "Cc1sc2c(c1C)C(c1ccc(Cl)cc1)=N[C@@H](CC(=O)NCCOCCOCCOCCOCCOCCOCCC(=O)NCCCN(C)CCCNC(=O)CCNC(=O)c1nc(NC(=O)CCNC(=O)c3cc(NC(=O)c4nc(NC(=O)CCNC(=O)c5cc(NC(=O)c6nccn6C)cn5C)cn4C)cn3C)cn1C)c1nnc(C)n1-2", "note": "[SynTEF1]", "values": [{"measurement": "time at which the compound begins to break down", "setting": "[3]", "result": "≤ 5", "unit": "days"}]}
